Key:
[1] = tested on: CFSE-labelled CD4(F8-) effector CD4+ T cells; experiment: Apoptosis of factor VIII-specific effector CD4+ T cells by cytolytic CD4+ T cells elicited with modified factor VIII epitope (Annexin V / 7-AAD); assay type: cell-based, factor VIII KO mice; conditions: APC (spleen B cells) loaded with 5 μg/ml huFVIII and 1 µM peptide, 72 h at 37° C., baseline mortality subtracted
Source text: FIG. 2. Apoptosis of allofactor-specific effector T-cells by cytolytic CD4+ T-cells induced by a T-cell epitope derived from said allofactor and modified by attaching a thioreductase motif. The allofactor used was factor VIII. See Example 5 for more details.
Polyclonal effector CD4+ T cells were obtained from the spleen of factor VIII KO mice immunised with 2 IU of recombinant human FVIII (CD4(F8-)) and purified using anti-CD4 magnetic beads. The cells were then labelled with CFSE.
Induction of apoptosis as measured by of CFSE-labelled cells was then measured by Annexin V and 7-AAD staining after incubating such cells with APC (spleen B cells) loaded with 5 μg/ml huFVIII and 1 µM of peptide of SEQ ID NO:5 (CGHCGGFTNMFATWSPSK, corresponding to the 2196-2207 amino acid sequence of the C2 domain of human factor VIII, modified by addition of a thioreductase motif (underlined) separated by 2 glycines from the Factor VIII T-cell epitope). Apoptosis was measured after 72 h culture at 37° C. When CFSE-labelled CD4(F8-) cells were co-cultured with CD4+ T cells obtained from mice immunised with a synthetic peptide of SEQ ID NO:5 (cytolytic CD4+ T cells), significant apoptosis was induced. […] When CFSE-labelled CD4(F8−) cells were co-cultured in the presence of a double number of unlabeled CD4(F8−) cells, no apoptosis was induced (“CD4(F8−)” caption in FIG. 2). […]

[2] = tested on: murine splenic B cells; experiment: Induction into apoptosis of splenic B cells of naïve mice by CD4+ T cells expanded with peptide (annexin V / 7-AAD Facs); assay type: cell-based, C57BI/6 mice
Method: FIG. 1. The bars in this Figure illustrate the viability of murine splenic B cells incubated under different conditions and evaluated by Facs analysis of annexin V binding and 7-AAD (two markers of apoptosis). • B (wt-pep): murine splenic B cells incubated with natural (wild-type) T-cell epitope derived from human anti-fVIII antibody; • B (cc-pep): murine splenic B cells incubated with T-cell epitope derived from human anti-fVIII antibody, wherein said T-cell epitope is modified by attaching the amino acids CHGC (SEQ ID NO: 20) to the N-terminus of the epitope; • B (cc-pep)+ T (cc-pep): murine splenic B cells incubated with modified anti-fVIII antibody T-cell epitope and with T cells expanded with modified T-cell epitope (modification as in “B (cc-pep)”); • B (wt-pep)+ T (cc-pep): murine splenic B cells incubated with wild-type anti-fVIII antibody T-cell epitope and T cells expanded with the corresponding modified T-cell epitope.
It was determined whether naïve B cells presenting a class II restricted T cell epitope derived from a BCR idiotype could be deleted by recognition and activation of T cells elicited to a specific anti-factor VIII antibody carrying the same idiotype. […]

Sequence: CGHCGGFTNMFATWSPSK (modified human factor VIII T-cell epitope; MISC_FEATURE - thioreductase motif; MISC_FEATURE - Gly-Gly-linker) [SEQ ID NO:5]
- apoptosis of CFSE-labelled CD4(F8-) cells co-cultured with cytolytic CD4+ T cells from mice immunised with the peptide ([1]; CD4(F8+) pool1): 6.6%
- apoptosis of CFSE-labelled CD4(F8-) cells co-cultured with cytolytic CD4+ T cells from mice immunised with the peptide ([1]; CD4(F8+)pool2): 8.4%

Sequence: CHGCYCAVPDPDA (modified T-cell epitope of CDR3 of anti-factor VIII antibody BO2C11; MISC_FEATURE - thioreductase motif) [SEQ ID NO:2]
- induction into apoptosis of B cells by T cells expanded with the peptide ([2]; B cells loaded with either peptide of SEQ ID NO:1 or SEQ ID NO:2, FIG. 1): induced into apoptosis

Sequence: YCAVPDDPDA (T-cell epitope of CDR3 of anti-factor VIII antibody BO2C11) [SEQ ID NO:1, reference compound]
- influence on the survival of control B cells of T cells expanded with the peptide ([2]; incubation period of 18 h, data not shown): no or only little influence
